Among the data in US20200216416A1, “QUINOLINE COMPOUNDS AS INHIBITORS OF TAM AND MET KINASES” (Array BioPharma Inc., priority 2019, published 2020) are IC50 values, retold here.

pIC50: −log10 of the molar value.

The target of assay [1] is T1, His-tagged recombinant human AXL cytoplasmic domain (Homo sapiens, UniProt P30530).
T1 construct: His-tagged recombinant human AXL cytoplasmic domain
T1 sequence (P30530 473-894 limits assumed): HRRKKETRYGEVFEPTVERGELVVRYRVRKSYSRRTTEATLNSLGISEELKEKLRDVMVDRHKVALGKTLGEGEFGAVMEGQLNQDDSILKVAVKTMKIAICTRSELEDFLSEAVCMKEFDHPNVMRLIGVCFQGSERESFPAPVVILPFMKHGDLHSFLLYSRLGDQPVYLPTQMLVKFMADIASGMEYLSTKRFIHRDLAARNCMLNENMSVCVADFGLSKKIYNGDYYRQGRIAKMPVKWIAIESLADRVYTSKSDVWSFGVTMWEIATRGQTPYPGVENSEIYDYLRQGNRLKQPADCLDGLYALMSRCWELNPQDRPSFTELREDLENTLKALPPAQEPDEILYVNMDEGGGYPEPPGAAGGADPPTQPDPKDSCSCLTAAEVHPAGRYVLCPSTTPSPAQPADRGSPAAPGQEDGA
The assay can be described thus: AXL Enzyme Assay (LanthaScreen Eu Kinase Binding). Particulars: averaged IC50; 60-minute incubation at 22° C.; TR-FRET. The protocol:
(§1) Compounds disclosed herein were screened for their ability to inhibit AXL kinase using Invitrogen's LanthaScreen™Eu Kinase Binding technology. His-tagged recombinant human AXL cytoplasmic domain was incubated with 20 nM Alexa-Fluor® Tracer 236 (PR9078A), 2 nM biotinylated anti-His (Cat. No. M4408), and 2 nM europium-labeled Streptavidin (Cat. No. PV5899) along with test compound in a buffer consisting of 25 mM HEPES, pH 7.4, 10 mM MgCl2, 0.01% Triton X-100, and 2% DMSO. Compounds were typically prepared in a threefold serial dilution in DMSO and added to the assay to give the appropriate final concentration. After a 60-minute incubation at 22° C., the reaction was measured using a PerkinElmer EnVision multimode plate reader via TR-FRET dual wavelength detection, and the percent of control (POC) was calculated using a ratiometric emission factor. […] The POC values are fit to a 4 parameter logistic curve and the IC50 value is point where the curve crosses 50 POC.
(In general: TR-FRET usually uses a lanthanide donor and a delayed reading to cut background.)

For assay [2], the target named is T2, His-tagged recombinant human MER cytoplasmic domain (Homo sapiens, UniProt Q12866).
T2 construct: His-tagged recombinant human MER cytoplasmic domain
T2 sequence (Q12866 527-999 limits assumed): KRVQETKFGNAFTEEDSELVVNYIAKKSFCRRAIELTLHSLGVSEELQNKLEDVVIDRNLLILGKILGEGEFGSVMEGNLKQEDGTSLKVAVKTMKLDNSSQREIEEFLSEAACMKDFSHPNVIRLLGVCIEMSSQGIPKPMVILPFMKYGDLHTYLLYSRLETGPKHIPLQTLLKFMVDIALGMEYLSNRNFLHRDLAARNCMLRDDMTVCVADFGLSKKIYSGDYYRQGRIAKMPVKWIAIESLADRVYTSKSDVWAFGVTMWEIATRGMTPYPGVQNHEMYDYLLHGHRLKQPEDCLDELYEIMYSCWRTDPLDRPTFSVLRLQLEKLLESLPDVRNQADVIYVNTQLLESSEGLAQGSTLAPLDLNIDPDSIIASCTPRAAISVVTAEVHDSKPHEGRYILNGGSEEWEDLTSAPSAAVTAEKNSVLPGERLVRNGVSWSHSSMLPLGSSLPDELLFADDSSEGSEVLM
Briefly: MER Enzyme Assay (LanthaScreen Eu Kinase Binding). The following applies: averaged IC50; MER 5 nM; 60-minute incubation at 22° C.; TR-FRET. The protocol:
as §1, with “human MER” for “human AXL”, “domain (5 nM)” for “domain”, “mM MgCl 2,” for “mM MgCl2,”

Another assay deals with T3, human MET kinase D1228H (Homo sapiens, UniProt P08581, D1228H).
T3 construct: GST-tagged recombinant human MET kinase domain; purchased Signal Chem
The assay can be described thus: c-Met Enzyme Assay, D1228H mutant. It is filed as binding. The following applies: averaged IC50; D1228H 2 nM; 60-minute incubation at 22° C.; read-out: D1228 H IC50. The protocol: (§2) The affinity of compound binding to wild type and mutant human MET kinases was measured using Invitrogen's LanthaScreen™ Eu Kinase Binding technology. Briefly, GST-tagged recombinant human MET kinase domain from Signal Chem (see Table 8 below for concentration in assay) was incubated with 50 nM Alexa-Fluor® Tracer 236 (Invitrogen Cat No. PR9078A) and 2 nM Europium-anti-GST (Invitrogen Cat. No. A15116) along with test compound in a buffer consisting of 25 mM HEPES, pH 7.4, 10 mM MgCl2, 0.01% Triton X-100, 1mM DTT, and 2% DMSO. Compounds were typically prepared in a three-fold serial dilution in DMSO and added to the assay to give the appropriate final concentration. After a 60-minute incubation at 22° C., the reaction was measured using a PerkinElmer EnVision multimode plate reader via TR-FRET dual wavelength detection, and the percent of control (POC) calculated using a ratiometric emission factor. […] The POC values were fit to a 4 parameter logistic curve and the IC50 value is point where the curve crosses 50 POC.

For another assay, the target named is T4, human MET kinase D1228N (Homo sapiens, UniProt P08581, D1228N).
T4 construct: GST-tagged recombinant human MET kinase domain; purchased Signal Chem
Briefly: c-Met Enzyme Assay, D1228N mutant. It counts as binding. The following applies: averaged IC50; D1228N 2 nM; 60-minute incubation at 22° C.; read-out: D1228 N IC50. The protocol:
as §2

T3 sequence (P08581 1078-1345 D1228H): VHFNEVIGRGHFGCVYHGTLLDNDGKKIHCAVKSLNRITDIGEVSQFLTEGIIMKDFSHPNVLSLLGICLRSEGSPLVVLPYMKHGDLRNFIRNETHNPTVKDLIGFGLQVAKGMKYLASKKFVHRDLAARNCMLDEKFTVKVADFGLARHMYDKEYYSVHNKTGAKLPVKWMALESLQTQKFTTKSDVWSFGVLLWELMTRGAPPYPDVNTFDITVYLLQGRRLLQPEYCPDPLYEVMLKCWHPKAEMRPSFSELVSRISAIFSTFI
T4 sequence (P08581 1078-1345 D1228N): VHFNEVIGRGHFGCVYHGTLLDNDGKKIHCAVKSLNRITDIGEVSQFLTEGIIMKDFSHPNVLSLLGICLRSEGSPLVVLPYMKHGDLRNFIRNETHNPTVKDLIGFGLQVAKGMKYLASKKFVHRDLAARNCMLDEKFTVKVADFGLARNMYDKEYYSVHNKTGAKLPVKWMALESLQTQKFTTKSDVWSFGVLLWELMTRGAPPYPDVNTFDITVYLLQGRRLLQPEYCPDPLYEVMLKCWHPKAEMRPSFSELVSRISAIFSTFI

Take `CCC(CC)n1cc(C(=O)Nc2ccc(Oc3ccnc4cc(OC)c(OC)cc34)cn2)c(=O)c(-c2ccc(F)cc2F)c1` [Example 16, 5-(2,4-difluorophenyl)-N-(5-((6,7-dimethoxyquinolin-4yl)oxy)pyridin-2-yl)-4-oxo-1-(pentan-3-yl)-1,4-dihydropyridine-3-carboxamide]: the negative logarithm of the IC50 (pIC50) in assay [1] was 8.40; in assay [2], 8.05; on human MET kinase D1228H, 8.27; on human MET kinase D1228N, 8.09.
On the same counts, the results for `COc1cc2nccc(Oc3ccc(NC(=O)c4cn(C)c(C(C)C)c(-c5ccc(F)cc5)c4=O)nc3)c2cc1OC` [Example 45, N-(5-((6,7-dimethoxyquinolin-4-yl)oxy)pyridin-2-yl)-5-(4-fluorophenyl)-6-isopropyl-1-methyl-4-oxo-1,4-dihydropyridine-3-carboxamide] are 8.30, 7.57, 7.95 and 7.87.
In the same order, the values of `COc1cc2nccc(Oc3ccc(NC(=O)c4cn(C)cc(-c5ccc(F)cc5)c4=O)nc3)c2cc1OC` [Example 2] are 9.00, 8.52, 7.78 and 7.53.
On the same counts, the results for `COc1cc2nccc(Oc3ccc(NC(=O)c4cn(CC(C)(C)O)cc(-c5ccc(F)cc5)c4=O)nc3)c2cc1OC` [Example 9, N-(5-((6,7-dimethoxyquinolin-4-yl)oxy)pyridin-2-yl)-5-(4-fluorophenyl)-1-(2-hydroxy-2-methylpropyl)-4-oxo-1,4-dihydropyridine-3-carboxamide] are 8.70, 8.52, 8.00 and 7.80.
Regarding `CCOc1ccc2c(Oc3ccc(NC(=O)c4cn(C(C)C)cc(-c5ccc(F)cc5)c4=O)nc3)ccnc2c1` [Example 52, N-(5-((7-ethoxyquinolin-4-yl)oxy)pyridin-2-yl)-5-(4-fluorophenyl)-1-isopropyl-4-oxo-1,4-dihydropyridine-3-carboxamide], the pIC50 in assay [1] is 8.40; in assay [2], 7.96; on human MET kinase D1228H, 7.84; at human MET kinase D1228N it was 7.58.
Turning to `COc1cc2c(Oc3ccc(NC(=O)c4cn(C(C)C)cc(-c5ccc(F)cc5)c4=O)nc3)ccnc2cc1F` [Example 49, N-(5-((7-fluoro-6-methoxyquinolin-4yl)oxy)pyridin-2-yl)-5-(4-fluorophenyl)-1-isopropyl-4-oxo-1,4-dihydropyridine-3-carboxamide], the negative-log IC50 (pIC50) in assay [1] was 9.00; in assay [2] it was 8.30; at human MET kinase D1228H it was 7.19; at human MET kinase D1228N it was 6.89.
On to `COc1ccc2nccc(Oc3ccc(NC(=O)c4cn(C(C)C)c(C)c(-c5ccc(F)cc5)c4=O)nc3)c2c1` [Example 33, 5-(4-fluorophenyl)-1-isopropyl-N-(5-((6-methoxyquinolin-4-yl)oxy)pyridin-2-yl)-6-methyl-4-oxo-1,4-dihydropyridine-3-carboxamide], for which the pIC50 in assay [1] is 9.00; in assay [2], 8.30; at human MET kinase D1228H, 8.28; on human MET kinase D1228N, 7.88.
In the case of `COc1cc2nccc(Oc3ccc(NC(=O)c4cn(C(C)C)c(C(C)C)c(-c5ccc(F)cc5)c4=O)nc3)c2cc1OC` [Example 38, N-(5-((6,7-dimethoxyquinolin-4yl)oxy)pyridin-2-yl)-5-(4-fluorophenyl)-1,6-diisopropyl-4-oxo-1,4-dihydropyridine-3-carboxamide], the pIC50 was 8.52 in assay [1] and 8.22 in assay [2].
In the case of `COc1cc2nc(C)cc(Oc3ccc(NC(=O)c4cn(C(C)C)cc(-c5ccc(F)cc5)c4=O)nc3)c2cc1OC` [Example 53, N-(5-((6,7-dimethoxy-2-methylquinolin-4-yl)oxy)pyridin-2-yl)-5-(4-fluorophenyl)-1-isopropyl-4-oxo-1,4-dihydropyridine-3-carboxamide], the values for the pIC50 (in assay [1]; in assay [2]; at human MET kinase D1228H) were 6.35, 6.02 and 5.37, respectively.

What is called pIC50 is the IC50 on a negative log10 scale, so that one unit is a factor of ten.
